From ChEMBL document CHEMBL1909046, “DrugMatrix in vitro pharmacology data”

How the values were obtained:
[1] = target: Substance-P receptor (Homo sapiens, UniProt P25103); type: cell membranes, CHO, Membrane; details: cho; note: in other assays of this panel Not Active means under 50% inhibition at 10 µM
[2] = target: Sigma non-opioid intracellular receptor 1 (Homo sapiens, UniProt Q99720); assay: DRUGMATRIX: Sigma1 radioligand binding (ligand: [3H] Haloperidol); type: cell membranes, Jurkat, Membrane; details: jurkat; Not Active = under 50% inhibition at 10 µM
Sigma non-opioid intracellular receptor 1, sequence (Q99720 whole entry): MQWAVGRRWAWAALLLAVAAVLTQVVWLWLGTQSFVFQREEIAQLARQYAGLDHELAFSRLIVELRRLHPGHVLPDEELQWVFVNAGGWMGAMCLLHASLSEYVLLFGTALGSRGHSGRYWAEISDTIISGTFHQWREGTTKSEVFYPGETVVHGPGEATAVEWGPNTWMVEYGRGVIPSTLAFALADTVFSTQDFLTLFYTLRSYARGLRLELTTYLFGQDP

[3] = target: T1, Estrogen receptor (Homo sapiens, UniProt P03372); details: sf9; note: in other assays of this panel Not Active means under 50% inhibition at 10 µM
T1 sequence (P03372 whole entry): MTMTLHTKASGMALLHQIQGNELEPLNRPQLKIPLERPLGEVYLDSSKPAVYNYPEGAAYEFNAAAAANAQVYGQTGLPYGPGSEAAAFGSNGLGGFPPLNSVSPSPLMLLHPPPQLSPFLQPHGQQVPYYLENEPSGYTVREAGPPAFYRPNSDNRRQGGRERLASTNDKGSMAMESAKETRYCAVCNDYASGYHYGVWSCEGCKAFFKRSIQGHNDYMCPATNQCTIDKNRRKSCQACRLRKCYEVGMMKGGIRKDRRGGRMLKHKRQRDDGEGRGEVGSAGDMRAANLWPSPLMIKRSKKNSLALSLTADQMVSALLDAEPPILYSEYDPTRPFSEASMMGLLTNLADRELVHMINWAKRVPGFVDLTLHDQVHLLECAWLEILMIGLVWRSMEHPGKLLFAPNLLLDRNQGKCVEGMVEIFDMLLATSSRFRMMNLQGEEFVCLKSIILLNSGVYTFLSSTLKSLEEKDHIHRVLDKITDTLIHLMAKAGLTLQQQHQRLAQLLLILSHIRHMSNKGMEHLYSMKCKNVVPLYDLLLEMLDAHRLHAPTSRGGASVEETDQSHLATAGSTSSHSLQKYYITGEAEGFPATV

[4] = DRUGMATRIX: Glutamate, Kainate radioligand binding (ligand: [3H] Kainic acid); type: cell membranes, Rattus norvegicus, Wistar, Brain, Membrane; details: Not Active = under 50% inhibition at 10 µM
[5] = target: Matrix metalloproteinase-9 (Homo sapiens, UniProt P14780); type: cell-based;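 note: inhibition of isolated MMP-9 enzyme activity toward a synthetic peptide substrate, from the DrugMatrix protease screening panel; in other assays of this panel Not Active means under 50% inhibition at 10 µM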
Matrix metalloproteinase-9, sequence (P14780 whole entry): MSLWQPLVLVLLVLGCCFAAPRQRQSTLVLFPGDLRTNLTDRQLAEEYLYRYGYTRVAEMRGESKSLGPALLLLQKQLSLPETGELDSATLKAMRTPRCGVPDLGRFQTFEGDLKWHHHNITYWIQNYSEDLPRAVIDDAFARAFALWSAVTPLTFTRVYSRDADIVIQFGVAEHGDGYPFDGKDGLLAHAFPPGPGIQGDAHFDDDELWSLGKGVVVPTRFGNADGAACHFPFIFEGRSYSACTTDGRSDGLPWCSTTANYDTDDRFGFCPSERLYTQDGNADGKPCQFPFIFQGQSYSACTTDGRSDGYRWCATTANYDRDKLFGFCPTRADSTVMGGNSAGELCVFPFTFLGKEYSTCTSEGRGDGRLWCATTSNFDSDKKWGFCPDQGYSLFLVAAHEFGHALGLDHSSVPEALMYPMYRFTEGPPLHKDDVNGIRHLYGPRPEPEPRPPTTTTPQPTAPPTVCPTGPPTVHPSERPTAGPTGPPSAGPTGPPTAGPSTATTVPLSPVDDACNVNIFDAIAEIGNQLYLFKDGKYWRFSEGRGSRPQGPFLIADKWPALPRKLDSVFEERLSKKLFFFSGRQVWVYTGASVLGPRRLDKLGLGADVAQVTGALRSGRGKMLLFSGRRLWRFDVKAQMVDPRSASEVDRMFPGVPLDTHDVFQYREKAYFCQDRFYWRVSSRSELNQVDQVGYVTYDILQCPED

[6] = target: T2, Polyunsaturated fatty acid lipoxygenase ALOX15 (Oryctolagus cuniculus, UniProt P12530); assay: biochemical; type: tissue-based, Reticulocytes; details: reticulocytes;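 note: inhibition of 15-lipoxygenase enzyme activity measured with linoleic acid as the substrate; in other assays of this panel Not Active means under 50% inhibition at 10 µM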
T2 sequence (P12530 whole entry): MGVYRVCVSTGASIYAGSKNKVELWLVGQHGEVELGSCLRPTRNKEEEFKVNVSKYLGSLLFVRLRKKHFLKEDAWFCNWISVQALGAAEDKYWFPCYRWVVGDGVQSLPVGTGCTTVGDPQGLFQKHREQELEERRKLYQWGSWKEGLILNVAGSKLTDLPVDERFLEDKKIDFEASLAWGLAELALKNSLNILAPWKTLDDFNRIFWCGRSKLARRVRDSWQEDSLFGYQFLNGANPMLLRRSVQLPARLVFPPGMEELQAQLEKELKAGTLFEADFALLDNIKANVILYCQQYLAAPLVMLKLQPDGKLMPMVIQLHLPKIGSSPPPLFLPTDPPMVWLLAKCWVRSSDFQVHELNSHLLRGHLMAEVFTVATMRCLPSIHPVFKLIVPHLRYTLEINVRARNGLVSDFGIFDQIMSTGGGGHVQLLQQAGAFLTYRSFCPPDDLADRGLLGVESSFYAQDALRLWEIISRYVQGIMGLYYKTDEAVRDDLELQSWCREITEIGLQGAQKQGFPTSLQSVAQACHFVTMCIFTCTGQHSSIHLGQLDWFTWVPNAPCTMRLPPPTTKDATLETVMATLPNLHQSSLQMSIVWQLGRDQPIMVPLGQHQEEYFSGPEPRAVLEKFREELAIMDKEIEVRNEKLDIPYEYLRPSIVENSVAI

[7] = DRUGMATRIX: Phorbol Ester radioligand binding (ligand: [3H] PDBu); type: cell membranes, Mus musculus, ICR, Brain, Membrane; details: Not Active = under 50% inhibition at 10 µM
[8] = DRUGMATRIX: GABAA, Flunitrazepam, Central radioligand binding (ligand: [3H] Flunitrazepam); type: cell membranes, Rattus norvegicus, Wistar, Brain, Membrane; details: Not Active = under 50% inhibition at 10 µM
[9] = target: T3, Leukotriene C4 synthase (Cavia porcellus, UniProt A6XA80); assay: biochemical; type: tissue-based, Lung
T3 sequence (A6XA80 whole entry): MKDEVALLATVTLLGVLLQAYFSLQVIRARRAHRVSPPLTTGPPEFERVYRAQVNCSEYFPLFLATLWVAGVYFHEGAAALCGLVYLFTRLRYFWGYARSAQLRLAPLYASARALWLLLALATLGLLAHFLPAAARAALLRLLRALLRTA

[10] = target: cGMP-specific 3',5'-cyclic phosphodiesterase (Homo sapiens, UniProt O76074); assay: DRUGMATRIX: Phosphodiesterase PDE5 enzyme inhibition (substrate: [3H]cGMP + cGMP); type: tissue-based, Platelet; details: platelet; Not Active = under 50% inhibition at 10 µM
[11] = target: T4, Cytochrome P450 2A6 (Homo sapiens, UniProt P11509); details: bti-tn-5b1-4; note: in other assays of this panel Not Active means under 50% inhibition at 10 µM
T4 sequence (P11509 whole entry): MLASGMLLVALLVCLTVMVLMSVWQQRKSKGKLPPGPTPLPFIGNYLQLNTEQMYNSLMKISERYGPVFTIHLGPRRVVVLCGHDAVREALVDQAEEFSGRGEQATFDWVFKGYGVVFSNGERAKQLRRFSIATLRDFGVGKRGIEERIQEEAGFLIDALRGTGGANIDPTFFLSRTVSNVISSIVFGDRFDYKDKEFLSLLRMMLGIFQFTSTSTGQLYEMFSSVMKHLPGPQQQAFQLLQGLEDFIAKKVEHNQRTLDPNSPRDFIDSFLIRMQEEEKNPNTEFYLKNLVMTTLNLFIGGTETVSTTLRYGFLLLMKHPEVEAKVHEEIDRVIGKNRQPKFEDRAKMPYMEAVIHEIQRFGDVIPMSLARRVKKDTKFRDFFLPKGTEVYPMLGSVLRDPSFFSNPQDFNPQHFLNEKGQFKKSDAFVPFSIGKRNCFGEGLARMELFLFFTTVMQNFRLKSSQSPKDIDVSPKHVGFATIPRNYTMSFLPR

[12] = target: Protein phosphatase 3 catalytic subunit alpha (Homo sapiens, UniProt Q08209); design: species or system Escherichia coli
[13] = DRUGMATRIX: Sigma2 radioligand binding (ligand: [3H] Ifenprodil); type: cell membranes, Rattus norvegicus, Wistar, Brain, Membrane; details: Not Active = under 50% inhibition at 10 µM
[14] = target: Platelet-activating factor receptor (Homo sapiens, UniProt P25105); assay: biochemical; type: tissue-based; details: platelet; note: in other assays of this panel Not Active means under 50% inhibition at 10 µM
Platelet-activating factor receptor, sequence (P25105 whole entry): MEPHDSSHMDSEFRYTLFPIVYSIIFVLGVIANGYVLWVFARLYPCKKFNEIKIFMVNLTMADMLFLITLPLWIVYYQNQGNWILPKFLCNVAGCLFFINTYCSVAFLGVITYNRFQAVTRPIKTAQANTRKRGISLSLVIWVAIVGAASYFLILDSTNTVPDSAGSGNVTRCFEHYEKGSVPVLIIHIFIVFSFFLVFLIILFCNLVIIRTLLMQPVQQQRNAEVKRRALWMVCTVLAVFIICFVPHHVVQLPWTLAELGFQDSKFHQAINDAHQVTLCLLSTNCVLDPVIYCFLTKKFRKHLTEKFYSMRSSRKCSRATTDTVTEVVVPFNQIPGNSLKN

[15] = target: 5-hydroxytryptamine receptor 1B (Rattus norvegicus, UniProt P28564); type: cell membranes, Wistar, Cerebral cortex, Membrane; note: in other assays of this panel Not Active means under 50% inhibition at 10 µM
5-hydroxytryptamine receptor 1B, sequence (P28564 whole entry): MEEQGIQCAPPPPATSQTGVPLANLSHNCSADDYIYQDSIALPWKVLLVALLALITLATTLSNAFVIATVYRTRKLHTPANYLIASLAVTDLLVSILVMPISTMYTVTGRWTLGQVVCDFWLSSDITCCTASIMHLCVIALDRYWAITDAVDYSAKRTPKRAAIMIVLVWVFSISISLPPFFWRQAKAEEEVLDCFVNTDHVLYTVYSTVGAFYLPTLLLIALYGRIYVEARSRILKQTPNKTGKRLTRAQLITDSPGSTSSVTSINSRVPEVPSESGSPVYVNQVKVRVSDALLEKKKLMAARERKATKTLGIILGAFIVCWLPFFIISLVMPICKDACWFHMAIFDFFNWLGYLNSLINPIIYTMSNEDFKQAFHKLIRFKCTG

Substance-P receptor, sequence (P25103 whole entry): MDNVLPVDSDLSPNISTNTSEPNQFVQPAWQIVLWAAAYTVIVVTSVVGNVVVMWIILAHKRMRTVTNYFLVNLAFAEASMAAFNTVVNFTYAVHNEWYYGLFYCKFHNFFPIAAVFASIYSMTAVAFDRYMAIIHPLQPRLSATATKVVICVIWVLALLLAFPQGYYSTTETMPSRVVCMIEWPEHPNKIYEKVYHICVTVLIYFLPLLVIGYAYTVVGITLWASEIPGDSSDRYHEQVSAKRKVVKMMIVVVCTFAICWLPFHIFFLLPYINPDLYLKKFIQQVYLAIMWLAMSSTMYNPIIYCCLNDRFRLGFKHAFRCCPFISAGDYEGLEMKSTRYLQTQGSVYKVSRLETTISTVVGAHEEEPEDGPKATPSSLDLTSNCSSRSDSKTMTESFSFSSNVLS

CCOC(=O)OC(C)OC1=C(C(=O)Nc2ccccn2)N(C)S(=O)(=O)c2ccccc21 (stereo not given) [AMPIROXICAM]
Not Active: IC50 [1] | IC50 [2] | IC50 [3] | IC50 [4] | Ki [4] | IC50 [5] | IC50 [6] | IC50 [7] | Ki [7] | IC50 [8] | Ki [8] | IC50 [9] | IC50 [10] | IC50 [11] | Ki [11] | IC50 [12] | IC50 [13] | Ki [13] | IC50 [14] | IC50 [15]

GOLD SODIUM THIOMALATE
Not Active: IC50 [1] | Ki [1] | IC50 [2] | Ki [2] | IC50 [3] | Ki [3] | IC50 [4] | Ki [4] | IC50 [5] | Ki [5] | IC50 [6] | Ki [6] | IC50 [7] | Ki [7] | IC50 [8] | Ki [8] | IC50 [9] | Ki [9] | IC50 [10] | Ki [10] | IC50 [11] | Ki [11] | IC50 [12] | Ki [12] | IC50 [13] | Ki [13] | IC50 [14] | Ki [14] | IC50 [15] | Ki [15]

C[C@]12CCC(=O)C=C1CC[C@@H]1[C@@H]2C(=O)C[C@@]2(C)[C@H]1CC[C@]2(O)C(=O)CO [CORTISONE]
Not Active: IC50 [1] | IC50 [2] | IC50 [3] | IC50 [4] | Ki [4] | IC50 [5] | IC50 [6] | IC50 [7] | Ki [7] | IC50 [8] | Ki [8] | IC50 [9] | IC50 [10] | IC50 [11] | Ki [11] | IC50 [12] | IC50 [13] | Ki [13] | IC50 [14] | IC50 [15]
